Source: patent publication US20080213768A1, “Identification and use of biomarkers for non-invasive and early detection of liver injury” (priority 2006, published 2008)

Legend:
Type in all cases: in vivo
[1] = system: human urine; assay: Biochemical profiling of human urine after single oral dose of APAP, correlated with rat; parameters: key: X: Biochemicals significantly changed by APAP in both rat and human biological samples; conditions: humans single oral dose of 4 g APAP
Procedure: (§1) Six healthy human volunteers received a standardized soy shake diet for 72 hours. Each volunteer received a single oral dose of 4 g APAP (˜50 mg/kg). Serum and urine were sampled at 0, 6, 18, 24, 48, 72 and 96 hours (urine collected between these times). BCP analysis was carried out as described in Example 1.

[2] = system: rat serum; assay: Biochemical profiling (LC-MS) of rat serum after a single dose of acetaminophen; parameters: key to Pipecolate significantly changed / Citrulline significantly changed: (x = significantly changed)
[3] = system: rat urine; assay: Biochemical profiling (LC-MS) of rat urine after a single dose of acetaminophen; parameters: key to Pipecolate significantly changed / Ribose significantly changed / Tyrosine significantly changed: (x = significantly changed)
[4] = system: human serum; assay: Biochemical profiling of human serum after single oral dose of APAP, correlated with rat; parameters: key: X: Biochemicals significantly changed by APAP in both rat and human biological samples; conditions: humans single oral dose of 4 g APAP
Procedure: as §1

2-Oxoglutarate significantly changed by APAP in both rat and human [1]: X
5-Hyroxytryptophan significantly changed by APAP in both rat and human [1]: X
Cytosine significantly changed by APAP in both rat and human [1]: X
Glutamate significantly changed by APAP in both rat and human [1]: X
Lysine significantly changed by APAP in both rat and human [1]: X
Serine significantly changed by APAP in both rat and human [1]: X
Citrulline significantly changed [2]: x
Pipecolate significantly changed [2]: x
Peak13 presence in serum ([2]; study of Example 1): not observed
responses of aspartic acid, Peak12, glutamine, Peak20, succinic acid and Peak26 versus control (baseline) ([2]; study of Example 1): significant variation from control
Pipecolate significantly changed [3]: x
Ribose significantly changed [3]: x
Tyrosine significantly changed [3]: x
response for Peak13 in urine versus control ([3]; study of Example 1): did not vary significantly from control
responses of aspartic acid, Peak12, glutamine, Peak20, succinic acid and Peak26 versus control (baseline) ([3]; study of Example 1): significant variation from control
Citrulline significantly changed by APAP in both rat and human [4]: X
Creatinine significantly changed by APAP in both rat and human [4]: X
Glutamate significantly changed by APAP in both rat and human [4]: X
Glutamine significantly changed by APAP in both rat and human [4]: X
Guanosine significantly changed by APAP in both rat and human [4]: X
Homoserine significantly changed by APAP in both rat and human [4]: X
Hypoxanthine significantly changed by APAP in both rat and human [4]: X
Ornithine significantly changed by APAP in both rat and human [4]: X
Phenylalanine significantly changed by APAP in both rat and human [4]: X
Pipecolate significantly changed by APAP in both rat and human [4]: X
SMILES: CC(=O)Nc1ccc(O)cc1 [acetaminophen]
